For the assay, the system named is L1210 leukemia ip in BDF1 mice, survival T/C. The assay is described as follows: NCI In Vivo Anticancer Drug Screen. Data for tumor model L1210 Leukemia (intraperitoneal) in B6D2F1 (BDF1) mice. To be noted: endpoint: mean survival time, higher = longer survival. The method, boiled down:
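Survival endpoint. Drug-treated group vs vehicle group, expressed as T divided by C. Tumor passaged by transplantation.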

Setting [1] is: dose: 100.0 mg/kg/injection, schedule: Q04DX003 (ip), vehicle: saline with Tween-80.
The mark [2] stands for this setting: dose: 200.0 mg/kg/injection, schedule: Q04DX003 (ip), vehicle: saline with Tween-80.
Where [3] appears, read: dose: 400.0 mg/kg/injection, schedule: Q04DX003 (ip), vehicle: saline with Tween-80.
[4] abbreviates: dose: 200.0 mg/kg/injection, schedule: Q04DX003 (ip), vehicle: saline.
The mark [5] stands for this setting: dose: 100.0 mg/kg/injection, schedule: Q01DX009 (ip), vehicle: saline.
Where [6] appears, read: dose: 100.0 mg/kg/injection, schedule: Q04DX003 (ip), vehicle: saline.
Where [7] appears, read: dose: 200.0 mg/kg/injection, schedule: Q01DX009 (ip), vehicle: saline.
The mark [8] stands for this setting: dose: 400.0 mg/kg/injection, schedule: Q01DX009 (ip), vehicle: saline.
Setting [9] is: dose: 400.0 mg/kg/injection, schedule: Q04DX003 (ip), vehicle: saline.
The mark [10] stands for this setting: dose: 50.0 mg/kg/injection, schedule: Q01DX001 (ip), vehicle: saline.
[11] abbreviates: dose: 100.0 mg/kg/injection, schedule: Q01DX001 (ip), vehicle: saline.
Where [12] appears, read: dose: 400.0 mg/kg/injection, schedule: Q01DX001 (ip), vehicle: saline.
Where [13] appears, read: dose: 100.0 mg/kg/injection, schedule: Q04DX003 (ip), vehicle: Klucel (hydroxypropylcellulose) (HPC).
Setting [14] is: dose: 200.0 mg/kg/injection, schedule: Q04DX003 (ip), vehicle: Klucel (hydroxypropylcellulose) (HPC).
Setting [15] is: dose: 400.0 mg/kg/injection, schedule: Q04DX003 (ip), vehicle: Klucel (hydroxypropylcellulose) (HPC).

Values joined by “and” are separate entries in the source; they are usually repeats but may differ in a detail not shown here. Equal entries are not always repeated. Inconclusive results and toxic doses are left out.

As to `CC(=O)NC1C(OC(C)=O)OC(COC(c2ccccc2)(c2ccccc2)c2ccccc2)C(OS(C)(=O)=O)C1OC(C)=O` (stereo unspecified), the T/C by setting is: (dose: 50.0 mg/kg/injection, schedule: Q04DX003 (ip), vehicle: saline with Tween-80) 109 % of control; under setting [1], 109 % of control and 91 % of control; under setting [2], 121 % of control; under setting [3], 88 % of control.

For `COC(=O)CN(c1c(C)cc(C)c(NS(=O)(=O)c2ccccc2)c1C)S(=O)(=O)c1ccccc1`, the T/C (dose: 100.0 mg/kg/injection, schedule: Q01DX001 (ip), vehicle: Klucel (hydroxypropylcellulose) (HPC)) is 92 % of control; the T/C (dose: 200.0 mg/kg/injection, schedule: Q01DX001 (ip), vehicle: Klucel (hydroxypropylcellulose) (HPC)) was 96 % of control; the T/C (dose: 400.0 mg/kg/injection, schedule: Q01DX001 (ip), vehicle: Klucel (hydroxypropylcellulose) (HPC)) is 97 % of control.

Consider `NC(=O)c1cn(C2OC(CO)C(O)C2O)c2nc(Cl)nc(N)c12` (stereo unspecified), for which the T/C (dose: 3.12 mg/kg/injection, schedule: Q01DX009 (ip), vehicle: saline) was 96 % of control; the T/C (dose: 6.25 mg/kg/injection, schedule: Q01DX009 (ip), vehicle: saline) is 106 % of control; the T/C (dose: 12.5 mg/kg/injection, schedule: Q01DX009 (ip), vehicle: saline) is 101 % of control; the T/C (dose: 25.0 mg/kg/injection, schedule: Q01DX009 (ip), vehicle: saline) is 106 % of control; the T/C under setting [4] is 115 % of control.

On to `CCOC(=O)C(OCc1ccccc1)(C(=O)OCC)C(C)C`, for which the T/C by setting is: under setting [5], 97 % of control; under setting [6], 96 % of control; under setting [7], 101 % of control; under setting [4], 102 % of control; under setting [8], 106 % of control; under setting [9], 108 % of control.

Take `CCC(Cc1c[nH]c2ccccc12)[N+](=O)[O-]` (stereo unspecified): the T/C (dose: 100.0 mg/kg/injection, schedule: Q01DX009 (ip), vehicle: Klucel (hydroxypropylcellulose) (HPC)) is 104 % of control; the T/C (dose: 200.0 mg/kg/injection, schedule: Q01DX009 (ip), vehicle: Klucel (hydroxypropylcellulose) (HPC)) is 111 % of control; the T/C (dose: 400.0 mg/kg/injection, schedule: Q01DX009 (ip), vehicle: Klucel (hydroxypropylcellulose) (HPC)) is 113 % of control.

For the compound `CC(C)C/C=C/C(=O)CC(=O)OC(C)C`, the T/C is, setting by setting: (dose: 75.0 mg/kg/injection, schedule: Q01DX001 (ip), vehicle: other) 97 % of control; (dose: 150.0 mg/kg/injection, schedule: Q01DX001 (ip), vehicle: other) 101 % of control; (dose: 300.0 mg/kg/injection, schedule: Q01DX001 (ip), vehicle: other) 117 % of control.

On to `O=C(CCCC(=O)N/N=C/c1ccccc1O)N/N=C\c1ccccc1O`, for which the T/C by setting is: under setting [10], 87 % of control; under setting [11], 90 % of control; under setting [12], 90 % of control.

As to `CC(=O)OCC(C)(C)COS(=O)(=O)c1ccc(Br)cc1`, the T/C was 100 % of control (dose: 50.0 mg/kg/injection, schedule: Q01DX009 (ip), vehicle: saline with Tween-80); 89 % of control (dose: 100.0 mg/kg/injection, schedule: Q01DX009 (ip), vehicle: saline with Tween-80); 89 % of control (dose: 200.0 mg/kg/injection, schedule: Q01DX009 (ip), vehicle: saline with Tween-80).

With `Clc1cc(N2CC2)nc(N2CC2)n1`, the T/C is, setting by setting: (dose: 1.56 mg/kg/injection, schedule: Q01DX001 (ip), vehicle: saline) 92 % of control; (dose: 1.56 mg/kg/injection, schedule: Q04DX003 (ip), vehicle: saline) 110 % of control; (dose: 1.6 mg/kg/injection, schedule: Q01DX009 (ip), vehicle: carboxymethylcellulose (CMC)) 118 % of control; (dose: 2.14 mg/kg/injection, schedule: Q01DX009 (ip), vehicle: saline) 166 % of control and 184 % of control; (dose: 2.5 mg/kg/injection, schedule: Q01DX001 (ip), vehicle: carboxymethylcellulose (CMC)) 111 % of control; (dose: 2.7 mg/kg/injection, schedule: Q01DX009 (ip), vehicle: carboxymethylcellulose (CMC)) 120 % of control. Further, the T/C runs as follows: (dose: 3.12 mg/kg/injection, schedule: Q01DX001 (ip), vehicle: saline) 93 % of control; (dose: 3.25 mg/kg/injection, schedule: Q01DX009 (ip), vehicle: saline with Tween-80) 185 % of control; (dose: 3.25 mg/kg/injection, schedule: Q01DX009 (ip), vehicle: saline) 177 % of control and 226 % of control; (dose: 4.12 mg/kg/injection, schedule: Q04DX003 (ip), vehicle: saline) 156 % of control; (dose: 4.44 mg/kg/injection, schedule: Q01DX001 (ip), vehicle: carboxymethylcellulose (CMC)) 115 % of control; (dose: 4.87 mg/kg/injection, schedule: Q01DX009 (ip), vehicle: saline) 103 % of control. In addition, the T/C reads like this: (dose: 5.0 mg/kg/injection, schedule: Q01DX001 (ip), vehicle: carboxymethylcellulose (CMC)) 120 % of control; (dose: 5.0 mg/kg/injection, schedule: Q01DX001 (ip), vehicle: saline) 118 % of control; (dose: 6.25 mg/kg/injection, schedule: Q01DX001 (ip), vehicle: saline) 98 % of control; (dose: 6.25 mg/kg/injection, schedule: Q04DX003 (ip), vehicle: saline) 166 % of control and 173 % of control and 202 % of control; (dose: 6.67 mg/kg/injection, schedule: Q01DX001 (ip), vehicle: carboxymethylcellulose (CMC)) 121 % of control; (dose: 7.5 mg/kg/injection, schedule: Q01DX009 (ip), vehicle: carboxymethylcellulose (CMC)) 106 % of control. Besides, the T/C was 154 % of control (dose: 10.0 mg/kg/injection, schedule: Q01DX001 (ip), vehicle: carboxymethylcellulose (CMC)); 156 % of control and 160 % of control (dose: 10.0 mg/kg/injection, schedule: Q01DX001 (ip), vehicle: saline); 160 % of control (dose: 15.0 mg/kg/injection, schedule: Q01DX001 (ip), vehicle: saline); 104 % of control (dose: 20.0 mg/kg/injection, schedule: Q01DX001 (ip), vehicle: carboxymethylcellulose (CMC)).

Regarding `COc1ncnc2c1ccn2C1OC(CO)C(O)C1O` (stereo unspecified), the T/C by setting is: (dose: 25.0 mg/kg/injection, schedule: Q01DX001 (ip), vehicle: saline) 86 % of control; under setting [10], 101 % of control; under setting [11], 101 % of control.

Turning to `COc1ccc(OCC(=O)c2ccccc2)cc1`, the T/C reads like this: under setting [13], 102 % of control; under setting [14], 98 % of control; under setting [15], 98 % of control.

Regarding `C/C(CC(C)C)=N/O`, the T/C was 95 % of control under setting [11]; 97 % of control (dose: 200.0 mg/kg/injection, schedule: Q01DX001 (ip), vehicle: saline); 92 % of control under setting [12].

In the case of `COC1(OC)CCP(=S)(c2ccccc2)CC1C#N` (stereo unspecified), the T/C under setting [1] was 100 % of control, the T/C under setting [2] was 101 % of control and the T/C under setting [3] was 92 % of control.

On to `O=C1C2CCN(CC2)C1Cc1ccccc1` (stereo unspecified), for which the T/C by setting is: (dose: 100.0 mg/kg/injection, schedule: Q04DX002 (ip), vehicle: saline) 111 % of control; (dose: 200.0 mg/kg/injection, schedule: Q04DX002 (ip), vehicle: saline) 107 % of control.

With `c1coc(C2SCSCS2)c1`, the T/C by setting is: under setting [13], 105 % of control; under setting [14], 101 % of control; under setting [15], 95 % of control.

Take `C=C(C)C1CCC2(C(=O)O)CCC3(C)C(CCC4C5(C)CCC(O)C(C)(C)C5CCC43C)C12` (stereo unspecified): the T/C was 104 % of control under setting [13], 97 % of control under setting [14] and 96 % of control under setting [15].

On to `COC(=O)C1(C)CCC(c2ccc(C)cc2)=C(CC(=O)O)C1` (stereo unspecified), for which the T/C is 115 % of control under setting [5]; 100 % of control under setting [6]; 97 % of control under setting [7]; 96 % of control under setting [4]; 95 % of control under setting [8]; 115 % of control under setting [9].

In the case of `O=C1OC(/C=C/c2ccccc2)=NC/1=C\c1cc(Br)ccc1O`, the T/C is, setting by setting: (dose: 100.0 mg/kg/injection, schedule: Q04DX002 (ip), vehicle: saline with Tween-80) 104 % of control; (dose: 200.0 mg/kg/injection, schedule: Q04DX002 (ip), vehicle: saline with Tween-80) 95 % of control and 97 % of control; (dose: 400.0 mg/kg/injection, schedule: Q04DX002 (ip), vehicle: saline with Tween-80) 104 % of control and 114 % of control.

The record behind these values is PubChem BioAssay AID248 (DTP/NCI, 2004).
